US11814364B2, “Pyridine N-oxide derivatives useful as factor XIa inhibitors” (Janssen Pharmaceutica NV, priority 2021, dated 2023)
Where a SMILES comes first, the peptide text is derived from it. The star is where a group is joined. AMC = Cc1cc(=O)oc2cc(N*)ccc12; Cbz = O=C(OCc1ccccc1)*

Biological target: human plasma kallikrein (Homo sapiens, UniProt P03952)
Experiment: Kallikrein inhibition FLINT assay with quenched AMC peptide substrate Z-Gly-Pro-Arg-AMC (end point EP or kinetic KIN reads)
Format: biochemical
Details: for IC50: kinetic reads at 5 min intervals over 30 min, read-out: Kallikrein (KIN) IC50
Summary of the method: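 Enzyme and compound were preincubated 30 min before adding 50 μM AMC substrate in pH 7.5 Tris/NaCl/CaCl2/BSA/CHAPS buffer. AMC release was read at 30 min endpoint or every 5 min.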

[1] = peptide substrate of kallikrein, titration data fit to Michaelis-Menten equation

Sequence of human plasma kallikrein (P03952 391-638 limits assumed): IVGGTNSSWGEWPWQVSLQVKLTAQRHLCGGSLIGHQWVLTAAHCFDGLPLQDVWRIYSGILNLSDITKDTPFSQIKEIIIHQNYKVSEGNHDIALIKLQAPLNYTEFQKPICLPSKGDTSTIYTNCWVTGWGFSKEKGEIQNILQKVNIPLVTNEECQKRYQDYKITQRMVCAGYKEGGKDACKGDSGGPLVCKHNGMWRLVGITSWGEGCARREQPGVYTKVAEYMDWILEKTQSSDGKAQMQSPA
Sequence of human plasma kallikrein (P03952 20-390 partner limits assumed): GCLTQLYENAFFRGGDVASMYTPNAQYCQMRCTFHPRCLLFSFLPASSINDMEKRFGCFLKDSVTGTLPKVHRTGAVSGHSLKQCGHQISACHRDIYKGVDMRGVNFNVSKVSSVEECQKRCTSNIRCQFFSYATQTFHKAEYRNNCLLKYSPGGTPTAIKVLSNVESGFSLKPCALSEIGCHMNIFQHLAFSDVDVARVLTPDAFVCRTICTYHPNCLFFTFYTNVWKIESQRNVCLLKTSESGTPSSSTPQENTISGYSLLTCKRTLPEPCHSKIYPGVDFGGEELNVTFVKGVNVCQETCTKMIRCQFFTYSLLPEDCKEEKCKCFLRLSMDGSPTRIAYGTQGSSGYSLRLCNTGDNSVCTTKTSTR

| SMILES | IC50 | also measured |
| --- | --- | --- |
| O=C(O)c1cc(-c2cnn(C(CC3CC3)c3ccc(-c4c(C(F)F)ccc(Cl)c4F)c[n+]3[O-])c2)c[nH]1 (centres unmarked) [Example Q24] | 0.578 µM | – |
| [O-][n+]1cc(-c2c(-n3cc(Cl)nn3)ccc(Cl)c2F)ccc1[C@@H](CCOC(F)F)n1cc(-c2nncn2C(F)F)cn1 [Example P692] | 0.334 µM | – |
| NC(=O)c1ccc(-c2cnn([C@H](CCOC(F)F)c3ccc(-c4cc(Cl)ccc4-n4cc(C(F)(F)F)nn4)c[n+]3[O-])c2)cc1F [Example P859] | 0.0287 µM | – |
| Cc1cc(=O)oc2cc(NC(=O)[C@H](CCCNC(=N)N)NC(=O)[C@@H]3CCCN3C(=O)CNC(=O)OCc3ccccc3)ccc12 [Z-Gly-Pro-Arg-AMC, reference compound] (Cbz-Gly-Pro-Arg-{AMC}) | – | Km [1]: 40 µM; kcat [1]: 0.76 s⁻¹ |
| COC(=O)CC(c1ccc(-c2c(-n3cc(C(F)(F)F)nn3)ccc(Cl)c2F)c[n+]1[O-])n1cc(-c2ccc(C(=O)O)c(F)c2)cn1 (centres unmarked) [Example P890] | 0.105 µM | – |
| COCC[C@H](c1ccc(-c2c(-n3cnnn3)ccc(Cl)c2F)c[n+]1[O-])n1cc(-c2cnnn2C(F)F)cn1 [Example P690] | 0.18 µM | – |
| O=C(O)c1ccc(-c2cnn(C(Cc3ccc(-c4ccccc4)cc3)c3ccc(-c4cc(Cl)ccc4-n4cnnn4)c[n+]3[O-])c2)cc1 (centres unmarked) [Example P62] | 0.0078 µM | – |
| Cn1ccc(C[C@H](c2ccc(-c3cc(Cl)ccc3OCC(F)(F)F)c[n+]2[O-])n2cc(-c3ccc(C(=O)O)cc3)cn2)n1 [Example Q58] | 0.517 µM | – |
| Cn1ncnc1-c1cnn([C@H](CCOC(F)F)c2ccc(-c3c(-n4cc(Cl)nn4)ccc(Cl)c3F)c[n+]2[O-])c1 [Example P722] | 0.0396 µM | – |
| [O-][n+]1cc(-c2c(-n3cc(C(F)(F)F)nn3)ccc(Cl)c2F)ccc1C(Cc1ccn(C(F)F)n1)n1cc(-c2ncnn2C(F)F)cn1 (single isomer, unassigned) [Example P837] | 0.0483 µM | – |
| COc1cc(C(CC2CC2)n2cc(-c3ncnn3C(F)F)cn2)[n+]([O-])cc1-c1c(C#N)ccc(Cl)c1F (centres unmarked) [Example Q56] | 0.0589 µM | – |
| [O-][n+]1cc(-c2c(-n3cnnn3)ccc(Cl)c2F)ccc1[C@@H](Cc1ccc(C(F)(F)F)nc1)n1cc(-c2ncnn2C(F)F)cn1 [Example P783] | 0.0189 µM | – |
| COc1ccc(CC(c2ccc(-c3cc(Cl)ccc3-n3cnnn3)c[n+]2[O-])n2cc(-c3ccc(C(=O)NC4CC4)cc3)cn2)cc1 (centres unmarked) [Example P86] | 0.023 µM | – |
| [2H]C([2H])(C[C@H](c1ccc(-c2c(-n3cc(C(F)(F)F)nn3)ccc(Cl)c2F)c[n+]1[O-])n1cc(-c2ncnn2C)cn1)OC(F)F [Example P834] | 0.068 µM | – |
| [O-][n+]1cc(-c2c(-n3cnnn3)ccc(Cl)c2F)ccc1[C@@H](CCOC(F)F)n1cc(-c2nn(C(F)F)cc2Cl)cn1 [Example P572] | 0.0241 µM | – |
| COc1cc(C(CC2CC2)n2cc(-c3ccnn3C)cn2)[n+]([O-])cc1-c1c(-n2cnnn2)ccc(Cl)c1F (single isomer, unassigned) [Example P491] | 0.0021 µM | – |
| COc1cc(C(CC2CC2C(=O)N2CCCCC2)n2cc(-c3ccc(N)nc3C)cn2)[n+]([O-])cc1-c1c(-n2cnnn2)ccc(Cl)c1F (centres unmarked) [Example P248] | 0.0149 µM | – |
| O=C(NC1CC1)c1ccc(-c2cnn(C(Cc3ccc(F)cc3)c3ccc(-c4c(-c5cnco5)ccc(Cl)c4F)c[n+]3[O-])c2)cc1 (centres unmarked) [Example P136] | 0.189 µM | – |
| COc1cc([C@@H](CC2CC2)n2cc(-c3ccc(C(=O)O)cc3)cn2)[n+]([O-])cc1-c1cc(Cl)ccc1C#N [Example Q51] | 0.0145 µM | – |
| COc1cc(C(CC2CC2)n2cc(-c3cnn(C)c(=O)c3)cn2)[n+]([O-])cc1-c1c(-n2cnnn2)ccc(Cl)c1F (centres unmarked) [Example P66] | 0.0206 µM | – |
| COCC[C@H](c1ccc(-c2c(-n3cnnn3)ccc(Cl)c2F)c[n+]1[O-])n1cc(-c2cc(C(F)(F)F)nn2C)cn1 [Example P619] | 0.0893 µM | – |
| Cn1ncnc1-c1cnn(C(CCOC(F)F)c2ccc(-c3c(-n4cc(OC(F)F)nn4)ccc(Cl)c3F)c[n+]2[O-])c1 (centres unmarked) [Example P801] | 0.0841 µM | – |
| [O-][n+]1cc(-c2c(-n3cc(Cl)nn3)ccc(Cl)c2F)ccc1[C@H](Cn1cc(F)cn1)n1cc(-c2c(F)cnn2C(F)F)cn1 [Example P634] | 0.739 µM | – |
| Cn1cc(-c2cnn([C@H](Cc3ccn(C(F)F)n3)c3ccc(-c4c(-n5cc(C#N)nn5)ccc(Cl)c4F)c[n+]3[O-])c2)c(Cl)n1 [Example P852] | 0.0022 µM | – |

The next lines start with results.

| IC50 | SMILES | also measured |
| --- | --- | --- |
| 0.0022 µM | O=C(O)c1ccc(-c2cnn(C(Cc3ccn(C(F)F)n3)c3ccc(-c4c(-n5cc(C(F)(F)F)nn5)ccc(Cl)c4F)c[n+]3[O-])c2)cc1 (single isomer, unassigned) [Example P900] | – |
| 0.995 µM | O=C(C1CC1CC(c1ccc(-c2c(-n3cnnn3)ccc(Cl)c2F)c[n+]1[O-])n1cc(-c2ccccc2)cn1)N1CCC(c2ccccc2)C1 (centres unmarked) [Example P196] | – |
| 0.377 µM | COC(=O)Nc1ccc(-c2cnn(C(CC3CC3C(=O)N3CCCC(c4ccccc4)C3)c3ccc(-c4c(-n5cnnn5)ccc(Cl)c4F)c[n+]3[O-])c2)cc1 (centres unmarked) [Example P221] | – |
| 0.0162 µM | Cc1cc(-c2cnn(C(Cn3cccn3)c3ccc(-c4c(-n5cnnn5)ccc(Cl)c4F)c[n+]3[O-])c2)ccn1 (centres unmarked) [Example P285] | – |
| 0.0045 µM | COC(=O)Nc1ccc(-c2cnn(C(CC3CC3)c3cc(OC)c(-c4c(-n5cnnn5)ccc(Cl)c4F)c[n+]3[O-])c2)cc1 (centres unmarked) [Example P93] | – |
| 0.0216 µM | Nc1ccc(-c2cnn(C(CC3CC3)c3ccc(-c4c(-n5cnnn5)ccc(Cl)c4F)c[n+]3[O-])c2)c(Cl)n1 (single isomer, unassigned) [Example P178] | – |
| 0.0097 µM | COC(=O)Nc1ccc(-c2cnn(C(Cc3ccc(F)cc3)c3ccc(-c4c(-n5cnnn5)ccc(Cl)c4F)c[n+]3[O-])c2)cc1 (centres unmarked) [Example P117] | – |
| 0.0077 µM | Cc1cc(-c2cnn(C(CCOC(F)F)c3ccc(-c4c(-n5cnnn5)ccc(Cl)c4F)c[n+]3[O-])c2)ccn1 (centres unmarked) [Example P307] | – |
| 0.668 µM | COC(=O)Nc1ccc(-c2cnn(C(CC3CC3C(N)=O)c3ccc(-c4c(-n5cnnn5)ccc(Cl)c4F)c[n+]3[O-])c2)cc1 (centres unmarked) [Example P249] | – |
| 0.428 µM | [O-][n+]1cc(-c2c(-n3cnnn3)ccc(Cl)c2F)ccc1C(CC1CC1)n1cc(-c2cnnn2C2CC2)cn1 (centres unmarked) [Example P524] | – |
| 0.376 µM | O=C(C1CC1CC(c1ccc(-c2c(-n3cnnn3)ccc(Cl)c2F)c[n+]1[O-])n1cc(-c2ccncc2)cn1)N1CCC(C2CC2)C1 (centres unmarked) [Example P254] | – |
| 0.0178 µM | CN(C)C(=O)c1ccn(CC(c2ccc(-c3c(-n4cnnn4)ccc(Cl)c3F)c[n+]2[O-])n2cc(-c3ccnc(C(F)(F)F)c3)cn2)n1 (single isomer, unassigned) [Example P451] | – |
| 0.0061 µM | [O-][n+]1cc(-c2c(-n3cnnn3)ccc(Cl)c2F)ccc1C(Cn1cccn1)n1cc(-c2ccncc2)cn1 (centres unmarked) [Example P269] | – |
| 0.0071 µM | COc1ccc(CC(c2ccc(-c3c(-n4cnnn4)ccc(Cl)c3F)c[n+]2[O-])n2cc(-c3ccn(C)c(=O)c3)cn2)cc1 (centres unmarked) [Example P134] | – |
| 0.0134 µM | Cn1nccc1-c1cnn(C(Cn2cc(F)cn2)c2ccc(-c3c(-n4cnnn4)ccc(Cl)c3F)c[n+]2[O-])c1 (centres unmarked) [Example P503] | – |
| 0.0037 µM | Cn1ccc(C[C@H](c2ccc(-c3c(-n4cc(C(F)(F)F)nn4)ccc(Cl)c3F)c[n+]2[O-])n2cc(-c3ccc(C(=O)O)cc3)cn2)n1 [Example P855] | – |

| IC50 | SMILES | also measured |
| --- | --- | --- |
| 0.211 µM | Cn1cncc1-c1cnn(C(CC2CC2)c2ccc(-c3c(-n4cnnn4)ccc(Cl)c3F)c[n+]2[O-])c1 (centres unmarked) [Example P495] | – |
| 0.023 µM | CN(CC(c1ccc(-c2c(-n3cnnn3)ccc(Cl)c2F)c[n+]1[O-])n1cc(-c2ccncc2)cn1)OC(F)(F)F (centres unmarked) [Example P323] | – |
| 0.923 µM | COCCC(c1ccc(-c2c(-n3cnnn3)ccc(Cl)c2F)c[n+]1[O-])n1cc(C2CCN(C(=O)OC)CC2)cn1 (centres unmarked) [Example P166] | – |
| 0.134 µM | [O-][n+]1cc(-c2c(-n3cnnn3)ccc(Cl)c2F)ccc1C(Cn1cc(F)c(COC(F)F)n1)n1cc(-c2ccnc(C(F)(F)F)c2)cn1 (single isomer, unassigned) [Example P571] | – |
| 0.0042 µM | CS(=O)(=O)Nc1ccc(-c2cnn(C(Cc3ccccc3)c3ccc(-c4c(-n5cnnn5)ccc(Cl)c4F)c[n+]3[O-])c2)cc1 (centres unmarked) [Example P76] | – |
| 0.516 µM | [O-][n+]1cc(-c2c(-n3cnnn3)ccc(Cl)c2F)ccc1C(C(O)c1ccccc1)n1cc(-c2ccnn2C(F)F)cn1 (single isomer, unassigned) [Example P719] | – |
| 0.0971 µM | O=C(O)c1ccc(-c2cnn(C(CC3CC3)c3ccc(-c4c(C(F)F)ccc(Cl)c4F)c[n+]3[O-])c2)cc1 (single isomer, unassigned) [Example Q13] | – |
| 0.0118 µM | [O-][n+]1cc(-c2c(-n3cnnn3)ccc(Cl)c2F)ccc1C(Cn1nccc1C(F)(F)F)n1cc(-c2ccnc(F)c2)cn1 (centres unmarked) [Example P346] | – |
| 0.0366 µM | COC(=O)N(C)CC(c1ccc(-c2c(-n3cnnn3)ccc(Cl)c2F)c[n+]1[O-])n1cc(-c2ccnc(C(F)(F)F)c2)cn1 (single isomer, unassigned) [Example P381] | – |
| 0.0018 µM | O=C(O)C1CCN(C(=O)c2ccn(CC(c3ccc(-c4c(-n5cnnn5)ccc(Cl)c4F)c[n+]3[O-])n3cc(-c4ccncc4)cn3)n2)CC1 (centres unmarked) [Example P444] | – |
| 0.123 µM | COC(=O)Nc1ccc(-c2cnn(C(CC3CCCC3)c3ccc(-c4c(-n5cnnn5)ccc(Cl)c4F)c[n+]3[O-])c2)cc1 (centres unmarked) [Example P110] | – |
| 0.0145 µM | COCCC(c1ccc(-c2c(-n3cnnn3)ccc(Cl)c2F)c[n+]1[O-])n1cc(-c2ccc(NC(=O)OC)cc2)cn1 (single isomer, unassigned) [Example P84] | – |
| 0.0119 µM | CC1CC1CC(c1ccc(-c2c(-n3cnnn3)ccc(Cl)c2F)c[n+]1[O-])n1cc(-c2ccc(C(=O)O)cc2)cn1 (centres unmarked) [Example P227] | – |
| 0.0022 µM | CC(C)n1ccc(C[C@H](c2ccc(-c3c(-n4cnnn4)ccc(Cl)c3F)c[n+]2[O-])n2cc(-c3ccnc(C(F)(F)F)c3)cn2)n1 [Example P652] | – |
| 0.468 µM | [O-][n+]1cc(-c2c(-n3cnnn3)ccc(Cl)c2F)ccc1[C@@H](CC1CCC1)n1cc(-c2cn(C(F)F)nn2)cn1 [Example P657] | – |
